What was measured:
[1] = physchem; assay type: physicochemical; conditions: % Recovery
Procedure: To validate the method of test agent recovery from the skin, solutions (1.0 mg/mL) of each vitamin D analogue were prepared in 100% PG. The precise concentrations in these samples were analysed by HPLC method described above. To assess the chemical stability of each test agent in the donor solutions used in the Franz cell experiments, 1.0 mg/mL of the samples prepared in 100% PG were incubated in a water bath at 37° C. for 24 h. In addition, to understand the chemical stability of each test agent in the extraction solvents used in the skin deposition studies, 1 mL of the drug sample in 100% PG was added into 10 mL of extraction fluid (MeOH for cholecalciferol, cholecalciferol phosphate acid, and MeOH:water, 90:10 for cholecalciferol phosphate disodium salt). Samples in PG (n=3) and samples in PG with the extraction fluid (n=3) were left in the water bath overnight at 37° C. and the sample concentration was analysed by the HPLC method described above. To assess whether the HPLC fluid had been impacted by any proteins that had leaked out of the skin, PG:water, 80:20 was added to donor and receiver chambers of porcine skin loaded Franz cells (n=3). A 5 mL sample of the receiver fluid was collected, and 25 μL of each test solution was added to this fluid and diluted to MeOH (1:1) and analysed by the HPLC method described previously. To verify the percentage of drug that could be recovered from the skin tissue, the skin sections were dermatomed (1 mm thickness) (n=3). The test solutions were spiked (50 μL) into a sample bottle containing the chopped dermatomed skin tissue. The samples containing the spiked drugs were left for 1 h for the drugs to absorb into the tissues. After the 1 h incubation period, 5 mL of extraction fluid (MeOH for cholecalciferol, cholecalciferol phosphate acid, and MeOH:water, 90:10 for cholecalciferol phosphate disodium salt) was added into each piece of the dermatomed skin tissue, then incubated in a shaking water bath for 1 h. The solutions were then tissue lysed by a tissue lyser for 40 min and homogenised by Ultra Turrax for 1 min and filtered using 0.45 μm syringe filters, centrifuged for 10 min at 13,000 rpm, and analysed by the HPLC method described above. In terms of cholecalciferol phosphate acid, after 1 h incubation and adding 5 mL extraction fluid, immediately the solutions with skin tissues were tissue lysed by a tissue lyser for 15 min. The solutions were then centrifuged for 10 min at 13,000 rpm and the supernatants were analysed by the HPLC method described above.

[2] = patch pre-formulation, saturated concentration in adhesive; assay type: physicochemical; conditions: DURO-TAK 87-2051 adhesive
Procedure: To each solution, 175 μL of the transdermal adhesive DURO-TAK 87-2051 (51.5 w/v %) was added, and vortexed. Then 2.0 μL of α-tocopherol and 2.5 μL of diethylene glycol monoethyl ether were added and vortexed. The visual solubility was assessed.
To this solution 4 mg of α-tocopherol in 3 mL ethyl acetate was added and 167 μL of the transdermal adhesive DURO-TAK 87-2051 (51.5 w/v %) in 7 mL ethyl acetate with 6 μL diethylene glycol monoethyl ether was also added.
Each solution (3×3 cm) was cast onto the backing (3M™ Scotchpak™ Polyester Backing Film Laminate 9730, UK) to determine the clarity, and the saturation limit of the test agents in the adhesive mixtures.

[3] = solubility in donor solution and thermodynamic activity (Table 4); assay type: physicochemical; conditions: PG
[4] = skin permeation and deposition, automated Franz diffusion cell (Example 5); assay type: in vitro ADME; conditions: PG formulation
Procedure: For the final formulation, 61.5 mg of cholecalciferol phosphate acid in 4.1 mL hexane was added into 1.435 mL DURO-TAK 87-2051 (51.5 w/v %) with 16.4 μL α-tocopherol and 20.5 μL diethylene glycol monoethyl ether. Likewise, 120 mg of cholecalciferol phosphate disodium salt in 35.2 mL MeOH:water (10:1) was added to 1.336 mL of DURO-TAK 87-2051 (51.5 w/v %) in 56 mL ethyl acetate with 32 mg of α-tocopherol and 48 μL diethylene glycol monoethyl ether. Each formulation was spread evenly on the 10×10 cm patch tray and left overnight to dry completely. Following the complete drying of the solvents, the adhesive layer was covered by the M3 Release layer (SCOTCHPAK 9755, UK), compressed, and then cut using a 34 mm circular manual die cutter (SCP Super Cutting Press, UK).
Subsequently, 1 mL aliquots were applied to the skin.
The automated Franz diffusion cell was used to investigate the permeation of cholecalciferol, cholecalciferol phosphate salt and cholecalciferol phosphate acid through porcine skin. Fresh white adult porcine ears were obtained from a local butcher (Ginger Pig, UK). Any damaged ears were discarded. The ears were removed from the carcass after hair removal. […] The collected receiver fluid was analysed by HPLC methods described previously.
At the end of the transport studies, the Franz cells were dismantled, and the donor solution was collected into bottles containing 10 mL of extraction fluid; MeOH for cholecalciferol, cholecalciferol phosphate acid and MeOH:water (90:10) for cholecalciferol phosphate salt, by wiping the surface of the skin and the inside of the donor compartment with two wet and then two dry cotton buds. […] Each collection was analysed by the HPLC method described above. Thus, the amount of each test agent on the surface of the skin, deposited in the skin, and passed into the receiver fluid was determined so that % mass recovery per cm^2 per skin could be calculated and drug deposition profiles could be obtained.

[5] = chemical stability on storage over 4 weeks; assay type: physicochemical
Procedure: The chemical stability of cholecalciferol phosphate acid/disodium salt was assessed in three different conditions over a 4-week period. Aliquots of 2 mg for each sample was stored at room temperature, 4° C., and −20° C. in a glass bottle covered with foil. A 20 mL sample of MeOH and MeOH:water (90:10) was added to cholecalciferol phosphate acid and cholecalciferol phosphate disodium salt, and the concentration and purity were assessed every week by the HPLC method described previously. The peak area was used to calculate sample concentration and the gradient of the data points being used to calculate the degradation rate.

## C=C1CC[C@H](OP(=O)(O)O)C/C1=C/C=C1\CCC[C@@]2(C)C1CC[C@@H]2[C@H](C)CCCC(C)C (stereo in doubt) [Cholecalciferol phosphate acid, cholecalciferol phosphate acid]
[1]; chemical stability with extraction fluid
  recovery at 0.091 mg/mL: 92.2 ± 2.26%
[1]; chemical stability without extraction fluid
  recovery at 24 h, 1 mg/mL: 88.5 ± 3.35%
[2]
  saturated concentration in patch formulation (highest loading without precipitation): 5.02 w/w %
[3]
  Solubility in PG: 4690 µg/mL
[4]
  fold higher transdermal permeation through the skin compared to cholecalciferol: about 9.34 fold
[5]; 4° C.
  loss of the original compound over 4 weeks: 9.98%
  reduction of purity over 4 weeks: 27.18%
[5]; room temperature
  loss of the original compound over 4 weeks: 77.15%
  reduction of purity over 4 weeks: 72.2%
[5]; −20° C.
  reduction of purity over 4 weeks: 1.03%
